Earlier results in patent US20250195680A1, “CANCER TREATMENT WITH ANTI-CLAUDIN 18.2 ADC” (priority 2023, published 2025).

Test system: gastric cancer
Details: combined with CAPOX or mFOLFOX6 vs chemotherapy alone

Substance: zolbetuximab: anti-CLDN18.2 monoclonal antibody
- efficacy in treating gastric cancer: effective in treating gastric cancer
